Assay results from ChEMBL document CHEMBL4130449, “Bioactive Seco-Lanostane-Type Triterpenoids from the Roots of Leplaea mayombensis” (J Nat Prod, 2017).
pIC50: −log10 of the molar value.

Test system: MDA-MB-231
Assay: Cytotoxicity against human MDA-MB-231 cells after 3 days by Celltiter-Glo assay
Assay type: functional, cell-based
Settings: MDA-MB-231, 72 h

| SMILES | pIC50 |
| --- | --- |
| C=C(C)[C@H]1CC=C2[C@@H](CC[C@]3(C)[C@@H]([C@@H](CCC=C(C)C)C(=O)O)CC[C@@]23C)[C@]1(C)CCC(=O)OC | 4.26 |
| C=C(C)[C@H]1CC=C2[C@@H](CC[C@]3(C)[C@@H]([C@@H](CCC=C(C)C)C(=O)O)CC[C@@]23C)[C@]1(C)CCC(=O)NCc1ccc(Br)cc1 | 3.85 |
| C=C(C)[C@H]1CC=C2[C@@H](CC[C@]3(C)[C@@H]([C@@H](CCC=C(C)C)C(=O)O)CC[C@@]23C)[C@]1(C)CCC(=O)O | 3.90 |
| C=C(C)[C@H]1CC=C2[C@@H](CC[C@]3(C)[C@@H]([C@@H](CCC=C(C)C)C(=O)OC)CC[C@@]23C)[C@]1(C)CCC(=O)OC | 4.20 |
| CC[C@H](/C=C/[C@@H](C)[C@H]1CC[C@H]2[C@@H]3CC=C4C[C@@H](O)CC[C@]4(C)[C@H]3CC[C@]12C)C(C)C [STIGMASTEROL] | 3.25 |
